Literature values as cited in patent US20140256762A1, “ARTEMISININ-BASED COMBINATION THERAPY FOR TREATING VIRAL MEDIATED DISEASE” (priority 2012, published 2014).

How the values were obtained:
[1] = background statement
[2] = background statement; remark: listed apart in the source

| Solubility [2] | Compound | Genotoxic activity [1] | Toxicity ([1]; generally considered) |
| --- | --- | --- | --- |
|  | COc1ccc2cc3[n+](cc2c1OC)CCc1cc2c(cc1-3)OCO2 [Berberine, (5,6-Dihydro-9,10-dimethoxybenzo[g]-1,3-benzodioxolo[5,6-a]quinolizinium)] | no genotoxic activity | non-toxic |
| lipid-soluble | CO[C@H]1O[C@@H]2O[C@@]3(C)CC[C@H]4[C@H](C)CC[C@@H]([C@H]1C)[C@@]24OO3 [artemether, (+)-(3-alpha,5a-beta,6-beta,8a-beta, 9-alpha,12-beta,12aR)-decahydro-10-methoxy-3,6,9-trimethyl-3,12-epoxy-12H-pyrano(4,3-j)-1,2-benzodioxepin] |  |  |
| water-soluble | C[C@H]1[C@H](OC(=O)CCC(=O)O)O[C@@H]2O[C@@]3(C)CC[C@H]4[C@H](C)CC[C@@H]1[C@@]24OO3 [artesunate, 3R,5aS,6R,8aS,9R,10S,12R,12aR)-Decahydro-3,6,9-trimethyl-3,12-epoxy-12H-pyrano(4,3-j)-1,2-benzodioxepin-10-ol hydrogen succinate] |  |  |

| Compound | Solubility [2] | Genotoxic activity [1] | Toxicity ([1]; generally considered) |
| --- | --- | --- | --- |
| C[C@@H]1CC[C@H]2[C@@H](C)C(=O)O[C@@H]3O[C@@]4(C)CC[C@@H]1[C@]32OO4 [artemisinin] | sparingly soluble in either water or oils |  |  |
